Target: hTREM2 (Homo sapiens, UniProt Q9NZC2)
Test: TREM2 activity by cellular Syk phosphorylation (AlphaScreen/AlphaLISA) in TREM2/DAP12-HEK cells, used for Examples 1-305
Format: cell-based
Design: expressed in transfected cells
Conditions: HEK293 Cells
In short: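 Single-cell-cloned HEK293 cells overexpressing TREM2 and DAP12, seeded 20 h, exposed to test articles (1% final DMSO) for 45 min at room temperature. Lysates read for phospho-Syk (Tyr525/526) vs total Syk by AlphaScreen. Signal normalised as percent of control between isotype IgG and 100 nM anti-TREM2 antibody; 4-parameter logistic fit.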

Sequence of hTREM2 (Q9NZC2 19-230): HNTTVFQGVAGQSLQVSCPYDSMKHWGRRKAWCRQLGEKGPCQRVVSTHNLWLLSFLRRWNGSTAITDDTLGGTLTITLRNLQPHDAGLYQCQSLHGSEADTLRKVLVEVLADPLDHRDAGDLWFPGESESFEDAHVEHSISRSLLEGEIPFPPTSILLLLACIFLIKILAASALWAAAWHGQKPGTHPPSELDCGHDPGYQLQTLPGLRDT
Sequence of hTREM2 (O43914 22-113 partner): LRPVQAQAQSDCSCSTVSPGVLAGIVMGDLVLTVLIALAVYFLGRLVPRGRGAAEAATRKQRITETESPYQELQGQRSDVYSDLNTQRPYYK

| EC50 [nM] | hTREM2 Emax | SMILES |
| --- | --- | --- |
| ≤ 50 | +++ (Emax>150 and ≤250) | Cc1nc2nc(N3CCO[C@@H](c4cnn(C)c4)C3)nc(C34CC(C(F)(F)F)(C3)C4)c2nc1C [Example 63, 6,7-dimethyl-2-((2S)-2-(1-methyl-1H-pyrazol-4-yl)-4-morpholinyl)-4-(3-(trifluoromethyl)bicyclo[1.1.1]pentan-1-yl)pteridine] |
| ≤ 50 | +++ (Emax>150 and ≤250) | Cc1nc2nc(N3CCO[C@@H](c4cnn(C5CC5)c4)C3)nc(C34CC(C(F)(F)F)(C3)C4)c2nc1C [Example 64, 2-((2S)-2-(1-cyclopropyl-1H-pyrazol-4-yl)-4-morpholinyl)-6,7-dimethyl-4-(3-(trifluoromethyl)bicyclo[1.1.1]pentan-1-yl)pteridine] |
| ≤ 50 | +++ (Emax>150 and ≤250) | Cc1cc([C@H]2CN(c3nc(C45CC(C(F)(F)F)(C4)C5)c4nc(C)c(C)nc4n3)CCO2)ccn1 [Example 65] |
| 500 to 3000 |  | Cc1nc2nc(N3CCO[C@@H](c4cnn(C)c4)C3)nc(N3CCC(F)(F)CC3)c2nc1C [Example 66, 4-(4,4-difluoro-1-piperidinyl)-6,7-dimethyl-2-((2S)-2-(1-methyl-1H-pyrazol-4-yl)-4-morpholinyl)pteridine] |
| 50 to 500 | + (Emax>45 and ≤100) | Cc1nc2nc(N3CCO[C@@H](c4cnn(C)c4)C3)nc(N3CCC(C)(C)CC3)c2nc1C [Example 67, 4-(4,4-dimethyl-1-piperidinyl)-6,7-dimethyl-2-((2S)-2-(1-methyl-1H-pyrazol-4-yl)-4-morpholinyl)pteridine] |
| 3000 to 100000 |  | Cc1nc2nc(N3CCO[C@@H](c4cnn(C)c4)C3)nc(N3CCCC(F)(F)C3)c2nc1C [Example 68, 4-(3,3-difluoro-1-piperidinyl)-6,7-dimethyl-2-((2S)-2-(1-methyl-1H-pyrazol-4-yl)-4-morpholinyl)pteridine] |
| 3000 to 100000 | ++ (Emax>100 and ≤150) | Cc1nc2nc(N3CCO[C@@H](c4cnn(C)c4)C3)nc(N3CCC(F)(F)C3)c2nc1C [Example 71, 4-(3,3-difluoro-1-pyrrolidinyl)-6,7-dimethyl-2-((2S)-2-(1-methyl-1H-pyrazol-4-yl)-4-morpholinyl)pteridine] |
| 500 to 3000 | + (Emax>45 and ≤100) | Cc1nc2nc(N3CCO[C@@H](c4cnn(C)c4)C3)nc(N3CCC(C)(C)C3)c2nc1C [Example 72, 4-(3,3-dimethyl-1-pyrrolidinyl)-6,7-dimethyl-2-((2S)-2-(1-methyl-1H-pyrazol-4-yl)-4-morpholinyl)pteridine] |
| 50 to 500 | ++++ (Emax>250) | Cc1cnc2c(-c3ccc(Cl)cc3F)nc(N3CCO[C@@H](c4cnn(C)c4)C3)cc2n1 [Example 73, 5-(4-chloro-2-fluorophenyl)-2-methyl-7-((2S)-2-(1-methyl-1H-pyrazol-4-yl)-4-morpholinyl)pyrido[3,4-b]pyrazine] |
| 50 to 500 | ++++ (Emax>250) | Cc1cnc2cc(N3CCO[C@@H](c4cnn(C)c4)C3)nc(-c3ccc(Cl)cc3F)c2n1 [Example 74, 5-(4-chloro-2-fluorophenyl)-3-methyl-7-((2S)-2-(1-methyl-1H-pyrazol-4-yl)-4-morpholinyl)pyrido[3,4-b]pyrazine] |
| 50 to 500 | ++++ (Emax>250) | CCn1cc([C@H]2CN(c3cc4nc(C)cnc4c(-c4ccc(Cl)cc4F)n3)CCO2)cn1 [Example 75, 5-(4-chloro-2-fluorophenyl)-7-((2S)-2-(1-ethyl-1H-pyrazol-4-yl)-4-morpholinyl)-2-methylpyrido[3,4-b]pyrazine] |
| 50 to 500 | ++++ (Emax>250) | Cc1cnc2c(-c3ccc(Cl)cc3F)nc(N3CCO[C@@H](c4cnn(C5CC5)c4)C3)cc2n1 [Example 76, 5-(4-chloro-2-fluorophenyl)-7-((2S)-2-(1-cyclopropyl-1H-pyrazol-4-yl)-4-morpholinyl)-2-methylpyrido[3,4-b]pyrazine] |

— US11884675B2, “Heterocyclic compounds as triggering receptor expressed on myeloid cells 2 agonists and methods of use” (AMGEN INC., priority 2020, dated 2024)
